Results from the NIST ThermoML archive (doi:10.1021/acs.jced.6b00008).
Numbers after ± are expanded uncertainties.

Assays:
[1] = Molar enthalpy of transition or fusion; conditions: Crystal; DSC
[2] = Crystal; DTA

## O=C(/C=C/c1ccc(O)c(O)c1)O[C@H](Cc1ccc(O)c(O)c1)C(=O)O [rosmarinic acid]
[1]
  Molar enthalpy of transition or fusion: 3.92 ± 0.335 kcal/mol
[2]
  Normal melting temperature: 160.96 ± 3.4 °C
